Series [1] concerns panel of bacteria and fungi. Kind of series: Antimicrobial serial dilution assay, whole panel. The format is cell-based. The note with it: result in words. As to the method: (§1) The Minimum Inhibitory Concentration (MIC) of the isolated metabolites (1–8) was evaluated using serial dilution assays in a 96-well microtiter plate against a panel of Gram-positive bacteria, namely Bacillus subtilis DSM 10, Mycobacterium smegmatis ATCC 700084 and Staphylococcus aureus DSM 346; Gram-negative bacteria, including Acinetobacter baumannii DSM 30008, Chromobacterium violaceum DSM 30191, Escherichia coli DSM 1116 and Pseudomonas aeruginosa PA14 and fungal cultures of Candida albicans DSM 1665, Mucor hiemalis DSM 2656, Rhodotorula glutinis DSM 10134, Schizosaccharomyces pombe DSM 70572 and Wickerhamomyces anomalus DSM 6766, according to previously described protocols. The MTT-based cytotoxicity assay was performed against several cancer cell lines (human endocervical adenocarcinoma KB 3.1, mouse fibroblasts L929, squamous cancer A431, breast cancer MCF-7, lung cancer A549, ovary cancer SK-OV-3, and prostate cancer PC-3) in accordance with our previously established protocols.

The subject of another series is mammalian cell lines. Description: cells. Type of series: cell-based. How it is done: as §1
In series [2] the test system is human endocervical adenocarcinoma KB 3.1. Description: MTT-based cytotoxicity assay. The format is cell-based. Particulars: Homo sapiens, KB 3-1; KB3.1; starting concentration 37 µg/mL; read-out: IC50. As to the method: as §1
In general terms: Tetrazolium dyes change colour on reduction, which living cells bring about.

The next series relates to mouse fibroblasts L929. Description: MTT-based cytotoxicity assay. Type of series: cell-based. The note with it: Mus musculus, starting concentration 37 µg/mL, read-out: IC50. How it is done:
as §1

For series [3], the system named is Staphylococcus aureus DSM 346. Kind of series: MIC serial dilution assay. Type of series: cell-based. The arrangement: key: (-): No inhibition. How it is done: as §1
In another series the test system is Mucor hiemalis DSM 2656. Description: MIC serial dilution assay. The arrangement: key: (-): No inhibition. The format is cell-based. As to the method: as §1
Series [4] has as its system Acinetobacter baumannii DSM 30008. Description: MIC serial dilution assay. The format is cell-based. The arrangement: key: (-): No inhibition. Particulars: Acinetobacter baumanii; starting concentration 66.7 μg/mL. How it is done: as §1
The test system of the next series is Bacillus subtilis DSM 10. Kind of series: MIC serial dilution assay. The format is cell-based. Details: key: (-): No inhibition. As to the method:
as §1

In series [5] the test system is Escherichia coli DSM 1116. Kind of series: MIC serial dilution assay. Particulars: starting concentration 66.7 μg/mL. The format is cell-based. The arrangement: key: (-): No inhibition. As to the method: as §1
For series [6], the system named is Candida albicans DSM 1665. Kind of series: MIC serial dilution assay. Type of series: cell-based. Details: key: (-): No inhibition. The note with it: starting concentration 66.7 μg/mL. As to the method:
as §1

The test system of series [7] is Chromobacterium violaceum DSM 30191. Kind of series: MIC serial dilution assay. Type of series: cell-based. The arrangement: key: (-): No inhibition. Particulars: starting concentration 66.7 μg/mL. How it is done: as §1
Series [8] concerns Wickerhamomyces anomalus DSM 6766. Kind of series: MIC serial dilution assay. Type of series: cell-based. The arrangement: key: (-): No inhibition. As to the method: as §1
For series [9], the system named is Mycobacterium smegmatis ATCC 700084. Kind of series: MIC serial dilution assay. Type of series: cell-based. The arrangement: key: (-): No inhibition. Particulars: starting concentration 66.7 μg/mL. How it is done:
as §1

The subject of series [10] is Rhodotorula glutinis DSM 10134. Description: MIC serial dilution assay. The format is cell-based. Details: key: (-): No inhibition. Particulars: Rhodoturula glutinis, starting concentration 66.7 μg/mL. As to the method:
as §1

Series [11] concerns Schizosaccharomyces pombe DSM 70572. Description: MIC serial dilution assay. Type of series: cell-based. The arrangement: key: (-): No inhibition. As to the method: as §1
Series [12] concerns Pseudomonas aeruginosa PA14. Description: MIC serial dilution assay. Details: key: (-): No inhibition. Particulars: starting concentration 66.7 μg/mL. The format is cell-based. How it is done: as §1
The next series concerns MptpB. The note with it: result in words; ref 63 (Cui et al.); cited from earlier work.
For a further series, the system named is squamous cancer A431. Description: MTT-based cytotoxicity assay. Type of series: cell-based. Particulars: Homo sapiens, A-431; A431; starting concentration 37 µg/mL; read-out: IC50. How it is done: as §1
The next series deals with breast cancer MCF-7. Kind of series: MTT-based cytotoxicity assay. The format is cell-based. The note with it: Homo sapiens, MCF7; MCF-7; starting concentration 37 µg/mL; read-out: IC50. How it is done: as §1
A further series relates to lung cancer A549. Description: MTT-based cytotoxicity assay. Type of series: cell-based. Particulars: Homo sapiens, starting concentration 37 µg/mL, read-out: IC50. How it is done:
as §1

The next series has as its system prostate cancer PC-3. Kind of series: MTT-based cytotoxicity assay. Type of series: cell-based. The note with it: PC-3; starting concentration 37 µg/mL; read-out: IC50. As to the method: as §1
A further series has as its system ovary cancer SK-OV-3. Kind of series: MTT-based cytotoxicity assay. Type of series: cell-based. The note with it: Homo sapiens, SK-OV-3; SKOV-3; starting concentration 37 µg/mL; read-out: IC50. As to the method:
as §1

The mark [13] stands for this setting: starting concentration 66.7 μg/mL.

pIC50: −log10 of the molar value. Values after ≈ are worked out from the molar mass of the structure shown. Where two headings read alike, the source gives them in different places.

A word on the pIC50: it is −log10 of the IC50, conventionally taken in molar units. For orientation: MIC means the lowest concentration that inhibits growth of the organism. In the case of `CCC(C)C1OC(=O)CNC(=O)CNC(=O)[C@H]([C@@H](C)O)NC(=O)C(C)C(O)CC(O)CC/C=C/C1C` (some centres unmarked) [Compound 1, eucalactam B], the “antimicrobial activity against the tested microorganisms” value in series [1] is reported as “devoid of any activity”. Besides, the cytotoxic effect result in the series with mammalian cell lines (mammalian cell lines, result in words) is given as “did not show any cytotoxic effect”. Moreover, the pIC50 (in [2]; in the series on mouse fibroblasts L929) was less than 4.14 in each case. The MIC result (in series [3] (setting [13]); in the series on Mucor hiemalis DSM 2656 (setting [13]); in [4]; in the series on Bacillus subtilis DSM 10 (setting [13]); in series [5]; in [6]) was “-” throughout. The MIC entry in series [7], in series [8] (setting [13]), in series [9], in series [10], in [11] (setting [13]) and in series [12] was “-” in each case.

Consider `CC(C)=CCc1ccc(O)c2c1[C@@H](c1cc(C)cc3c1O[C@H](C(C)(C)O)CO3)NC2=O` [diaporisoindole A], for which the “inhibitory activity against MptpB” value in the series on MptpB is “potent inhibitory activity”.

Take `CC(C)=CCc1ccc(O)c2c1[C@H](c1cc(C)cc3c1O[C@H](C(C)(C)O)CO3)NC2=O` [diaporisoindole B]: the “inhibitory activity against MptpB” value with MptpB is on record as “failed to show any activity”.

In the case of `CC(C)=CCc1ccc(O)c(C=O)c1C(=O)c1cc(C)cc2c1OC(C(C)(C)O)CO2` (centres unmarked) [Compound 6, tenellone B], the pIC50 was 4.37 to 4.75 with mammalian cell lines (A431, MCF-7, A549, SKOV-3 and PC-3, read-out: IC50, range over five other mammalian cell lines); 4.71 with squamous cancer A431; 4.75 with breast cancer MCF-7; 4.68 with lung cancer A549; 4.70 in series [2]; 4.75 with prostate cancer PC-3. Also, the pIC50 with mouse fibroblasts L929 is 4.31; in the series on ovary cancer SK-OV-3, 4.37. For the same compound, the minimum inhibitory concentration (MIC) in [3] (DSM346, starting concentration 66.7 μg/mL, read-out: MIC) was 16.6 µg/mL (≈ 39.1 µM); with Mucor hiemalis DSM 2656 (DSM2656, starting concentration 66.7 μg/mL, read-out: MIC), 16.6 µg/mL (≈ 39.1 µM); in series [4], “-”; with Bacillus subtilis DSM 10 (DSM10, starting concentration 66.7 μg/mL, read-out: MIC) it was 16.6 µg/mL (≈ 39.1 µM); in series [5], “-”; in series [6], “-”. The MIC entry was “-” in [7]; 66.6 µg/mL (≈ 157 µM) in series [8] (Hansenula anomala, DSM6766, starting concentration 66.7 μg/mL, read-out: MIC); “-” in [9]; 16.6 µg/mL (≈ 39.1 µM) in series [10] (Rhodotorula glutinis, DSM10134, read-out: MIC); 66.6 µg/mL (≈ 157 µM) in [11] (DSM70572, starting concentration 66.7 μg/mL, read-out: MIC); “-” in [12].

The record behind these values is article PMC10381184, “Unprecedented Antimicrobial and Cytotoxic Polyketides from Cultures of Diaporthe africana sp. nov” (Journal of Fungi, 2023).
